Measured values: patent US8822449B2, “Substituted aminoindanes and analogs thereof, and the pharmaceutical use thereof” (Sanofi, priority 2008, dated 2014)

Biological target: T1, sodium-proton exchanger of subtype 3 (NHE3) (Homo sapiens, UniProt P48764)
T1 construct: expressed in transfected cells
T1 sequence (P48764 26-834): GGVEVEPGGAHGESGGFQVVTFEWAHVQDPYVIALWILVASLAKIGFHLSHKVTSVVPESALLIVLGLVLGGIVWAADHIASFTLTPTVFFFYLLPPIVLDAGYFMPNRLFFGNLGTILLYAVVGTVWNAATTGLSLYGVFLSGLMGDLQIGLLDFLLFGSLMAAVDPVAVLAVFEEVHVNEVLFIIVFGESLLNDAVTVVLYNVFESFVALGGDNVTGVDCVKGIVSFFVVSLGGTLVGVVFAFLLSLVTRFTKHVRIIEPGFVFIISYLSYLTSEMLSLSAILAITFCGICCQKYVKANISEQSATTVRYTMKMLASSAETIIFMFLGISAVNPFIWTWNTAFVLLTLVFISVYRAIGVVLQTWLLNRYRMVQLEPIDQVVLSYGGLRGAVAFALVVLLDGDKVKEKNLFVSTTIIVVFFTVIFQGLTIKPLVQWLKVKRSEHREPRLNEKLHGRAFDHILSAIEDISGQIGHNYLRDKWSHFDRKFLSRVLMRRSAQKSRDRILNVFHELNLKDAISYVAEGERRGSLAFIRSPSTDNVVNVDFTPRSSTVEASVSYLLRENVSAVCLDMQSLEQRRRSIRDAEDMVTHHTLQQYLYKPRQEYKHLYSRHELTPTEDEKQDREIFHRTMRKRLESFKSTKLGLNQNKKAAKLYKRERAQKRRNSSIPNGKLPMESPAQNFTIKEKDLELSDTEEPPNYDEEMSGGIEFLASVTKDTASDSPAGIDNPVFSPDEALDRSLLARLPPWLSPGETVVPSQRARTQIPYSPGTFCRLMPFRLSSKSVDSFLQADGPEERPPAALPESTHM
Assay: Recovery of intracellular pH (pHi) after acidification in LAP1 cells stably expressing NHE3 (BCECF fluorescence, FLIPR)
Format: cell-based
Conditions: LAP1 cells stably expressing NHE3; pH recovery after acidification; range 1 is % inhibition at 10 μM; read-out: Activity range (inhibitory effect on NHE3)

| Structure (SMILES) | IC50 [nM] | inhibition at 10 µM [%] |
| --- | --- | --- |
| CO[C@@H]1CCN(C2Cc3ccccc3C2Oc2ccc(S(N)(=O)=O)c(Cl)c2Cl)C1 (mixture of isomers) [Example 359, 2,3-dichloro-4-[rac-trans-(1,2)-2-((R)-3-methoxypyrrolidin-1-yl)indan-1-yloxy]benzenesulfonamide] | 1000 to 10000 | – |
| N[C@H]1CCCN([C@@H]2Cc3ccccc3[C@H]2Oc2cccc(N3CCNCC3)c2)C1 (racemic) [Example 169, (S)-1-[rac-trans-(1,2)-1-(3-piperazin-1-ylphenoxy)indan-2-yl]piperidin-3-ylamine] | < 1000 | – |
| Cc1cc(O[C@H]2c3cc(F)cc(Cl)c3C[C@@H]2N2CCCC2)ccc1S(C)(=O)=O (racemic) [Example 282, 1-[rac-trans-(1,2)-4-chloro-6-fluoro-1-(4-methanesulfonyl-3-methylphenoxy)indan-2-yl]pyrrolidine] | – | 20 to 50 |
| N[C@H]1CCCN([C@H]2CCc3ccccc3[C@@H]2Oc2ccc(F)c3cccnc23)C1 (racemic) [Example 188, (S)-1-[rac-trans-(1,2)-1-(5-fluoroquinolin-8-yloxy)-1,2,3,4-tetrahydronaphthalen-2-yl]piperidin-3-ylamine] | 1000 to 10000 | – |
| CS(=O)(=O)c1ccc(O[C@H]2c3cc(Cl)cc(Cl)c3C[C@@H]2N2CC[C@H](N)C2)cc1 [Example 199, (S)-1-[trans-(1S,2S)-4,6-dichloro-1-(4-methanesulfonylphenoxy)indan-2-yl]pyrrolidin-3-ylamine] | < 1000 | – |
| CS(=O)(=O)c1ccc(O[C@H]2c3ccccc3C[C@@H]2N2CCC[C@@H](NC(=O)C(F)(F)F)C2)cc1 [Example 354, 2,2,2-trifluoro-N-{(R)-1-[trans-(1S,2S)-1-(4-methanesulfonylphenoxy)indan-2-yl]piperidin-3-yl}acetamide] | – | 20 to 50 |
| N[C@@H]1CCCN([C@H]2CCc3ccccc3[C@@H]2Oc2ccc(Br)cc2-c2cc[nH]n2)C1 (racemic) [Example 117, (R)-1-{rac-trans-(1,2)-1-[4-bromo-2-(1H-pyrazol-3-yl)phenoxy]-1,2,3,4-tetrahydronaphthalen-2-yl}piperidin-3-ylamine] | 1000 to 10000 | – |
| N[C@H]1CCCN([C@@H]2Cc3ccccc3[C@H]2Oc2ccc(-n3ccnc3)cc2)C1 (racemic) [Example 181, (S)-1-[rac-trans-(1,2)-1-(4-imidazol-1-ylphenoxy)indan-2-yl]piperidin-3-ylamine] | 1000 to 10000 | – |
| Cc1cc(=O)cc(C)n1-c1ccc(O[C@H]2c3cc(Cl)cc(Cl)c3C[C@@H]2N2CC[C@@H](O)C2)c(F)c1 [Example 324, 1-{4-[(1S,2S)-4,6-dichloro-2-((R)-3-hydroxypyrrolidin-1-yl)indan-1-yloxy]-3-fluorophenyl}-2,6-dimethyl-1H-pyridin-4-one] | < 1000 | – |
| Clc1ccc2cccc(O[C@H]3c4ccccc4CC[C@@H]3N3CCOCC3)c2n1 (racemic) [Example 395, 2-chloro-8-(rac-trans-(1,2)-2-morpholin-4-yl-1,2,3,4-tetrahydronaphthalen-1-yloxy)quinoline] | – | 20 to 50 |
| COCCc1ccc(O[C@@H]2c3ccccc3C[C@H]2N2CCC(N)C2)cc1 (mixture of isomers) [Example 342, 1-{rac-trans-(1,2)-1-[4-(2-methoxyethyl)phenoxy]indan-2-yl}pyrrolidin-3-ylamine] | 1000 to 10000 | – |
| N#Cc1ccc(O[C@H]2c3ccccc3C[C@@H]2CN2CCCC2)cc1Cl (racemic) [Example 391, 2-chloro-4-(2-pyrrolidin-1-ylmethylindan-1-yloxy)benzonitrile] | – | 20 to 50 |
| COc1cc(Cl)cc(O[C@H]2c3ccccc3CC[C@@H]2N2CCC[C@H](N)C2)c1 (racemic) [Example 163, (S)-1-[rac-trans-(1,2)-1-(3-chloro-5-methoxyphenoxy)-1,2,3,4-tetrahydronaphthalen-2-yl]piperidin-3-ylamine] | 1000 to 10000 | – |
| NC(=O)Nc1cccc(O[C@@H]2c3ccccc3C[C@H]2N2CCC[C@@H](N)C2)c1 (racemic) [Example 231, {3-[rac-trans-(1,2)-2-((R)-3-aminopiperidin-1-yl)indan-1-yloxy]phenyl}urea] | < 1000 | – |
| NC1CCN([C@@H]2Cc3ccccc3[C@H]2Oc2ccc(Br)cc2-c2cc[nH]n2)CC1 (racemic) [Example 343, 1-{rac-trans-(1,2)-1-[4-bromo-2-(1H-pyrazol-3-yl)phenoxy]indan-2-yl}piperidin-4-ylamine] | 1000 to 10000 | – |
| N[C@H]1CCCN([C@H]2CCc3ccccc3[C@@H]2Oc2ccc(-n3ccnc3)cc2)C1 (racemic) [Example 180, (S)-1-[rac-trans-(1,2)-1-(4-imidazol-1-ylphenoxy)-1,2,3,4-tetrahydronaphthalen-2-yl]piperidin-3-ylamine] | – | 20 to 50 |
| Nc1cccc(O[C@@H]2c3ccccc3C[C@H]2N2CCCC2)c1 (racemic) [Example 401, 3-(rac-trans-(1,2)-2-pyrrolidin-1-ylindan-1-yloxy)phenylamine] | 1000 to 10000 | – |

The next lines start with the values.

| IC50 [nM] | inhibition at 10 µM [%] | Structure (SMILES) |
| --- | --- | --- |
| 1000 to 10000 | – | CC(=O)Nc1cccc(O[C@H]2c3ccccc3CC[C@@H]2N2CCC[C@@H](N)C2)c1 (racemic) [Example 676, N-{3-[rac-trans-(1,2)-2-((R)-3-aminopiperidin-1-yl)-1,2,3,4-tetrahydronaphthalen-1-yloxy]phenyl}acetamide] |
| 1000 to 10000 | – | N#Cc1ccc2cccc(O[C@H]3c4ccccc4CC[C@@H]3N3CCC[C@H](N)C3)c2n1 (racemic) [Example 596, 8-[rac-trans-(1,2)-2-((S)-3-aminopiperidin-1-yl)-1,2,3,4-tetrahydronaphthalen-1-yloxy]quinoline-2-carbonitrile] |
| – | 20 to 50 | NS(=O)(=O)c1ccc(O[C@H]2c3cc(Cl)cc(Cl)c3C[C@@H]2N2CCC(F)(F)CC2)cc1 [Example 484, 4-[(1S,2S)-4,6-dichloro-2-(4,4-difluoropiperidin-1-yl)indan-1-yloxy]benzenesulfonamide] |
| – | 20 to 50 | CS(=O)(=O)c1ccc(O[C@@H]2c3ccccc3C[C@H]2NC2CCCCCC2)cc1 (racemic) [Example 711, Cycloheptyl-[rac-trans-(1,2)-1-(4-methanesulfonyl-phenoxy)-indan-2-yl]-amine] |
| 1000 to 10000 | – | CN1CC(=O)N(c2ccc(Cl)c(O[C@H]3c4cc(Cl)cc(F)c4C[C@@H]3N3CC[C@@H](O)C3)c2)C1=O [Example 435, 3-{4-chloro-3-[(1S,2S)-6-chloro-4-fluoro-2-((R)-3-hydroxypyrrolidin-1-yl)indan-1-yloxy]phenyl}-1-methylimidazolidine-2,4-dione] |
| 1000 to 10000 | – | NCC1CCN([C@@H]2Cc3ccccc3[C@H]2Oc2ccc(F)cc2F)C1 (mixture of isomers) [Example 602, C-{1-[rac-trans-(1,2)-1-(2,4-difluorophenoxy)indan-2-yl]pyrrolidin-3-yl}methylamine] |
| < 1000 | – | CCc1nnc(C(C)C)n1-c1ccc(O[C@H]2c3cc(Cl)cc(Cl)c3C[C@@H]2N2CC[C@@H](O)C2)cc1 [Example 716, (R)-1-{trans-(1S,2S)-4,6-Dichloro-1-[4-(3-ethyl-5-isopropyl-[1,2,4]triazol-4-yl)-phenoxy]-indan-2-yl}-pyrrolidin-3-ol] |
| 1000 to 10000 | – | O=C1COC(=O)N1c1ccc(F)c(O[C@H]2c3cc(Cl)cc(Cl)c3C[C@@H]2N2CC[C@@H](O)C2)c1 [Example 418, 3-{3-[(1S,2S)-4,6-dichloro-2-((R)-3-hydroxypyrrolidin-1-yl)indan-1-yloxy]-4-fluorophenyl}oxazolidine-2,4-dione] |
| 1000 to 10000 | – | CCc1ccc(O[C@@H]2c3ccccc3C[C@H]2N2CCC(CN)C2)c(C(C)(C)C)c1 (mixture of isomers) [Example 610, C-{1-[rac-trans-(1,2)-1-(2-tert-butyl-4-ethylphenoxy)indan-2-yl]pyrrolidin-3-yl}methylamine] |
| 1000 to 10000 | – | NS(=O)(=O)c1ccc(O[C@H]2c3ccccc3C[C@@H]2CN2CCCC2)c(F)c1 (racemic) [Example 452, 3-fluoro-4-(2-pyrrolidin-1-ylmethylindan-1-yloxy)benzenesulfonamide] |
| < 1000 | – | CC(=O)Nc1cccc(OC2c3ccccc3CC2N2CCCC2)c1 (racemic) [Example 641, N-[3-(rac-trans-(1,2)-2-pyrrolidin-1-ylindan-1-yloxy)phenyl]acetamide] |
| 1000 to 10000 | – | CS(=O)(=O)c1ccc(O[C@H]2c3ccccc3C[C@@H]2NC2CCCC2)cc1 (racemic) [Example 623, Cyclopentyl-[1-(4-methanesulfonylphenoxy)indan-2-yl]amine] |
| 1000 to 10000 | – | NCC1CCN([C@@H]2Cc3ccccc3[C@H]2Oc2ccc3c(c2)OCO3)CC1 (racemic) [Example 620, C-{1-[rac-trans-(1,2)-1-(benzo[1,3]dioxol-5-yloxy)indan-2-yl]piperidin-4-yl}methylamine] |
| < 1000 | – | N[C@@H]1CCCN([C@H]2Cc3c(Cl)cc(Cl)cc3[C@@H]2Oc2ccc(S(N)(=O)=O)cc2)C1 [Example 480, 4-[(1S,2S)-2-((R)-3-aminopiperidin-1-yl)-4,6-dichloroindan-1-yloxy]benzenesulfonamide] |
